Data from PMC12673148, “Structural basis of protease-activated receptor 2 activation and biased agonism” (Cell Discovery, 2025).
Where two headings read alike, the source gives them in different places.

Columns and labels:
PAR2 [1] = conditions: cited from earlier work; for PAR2 activation: synthetic peptides mimicking the TL
Text: We used the N-terminal deletion construct of PAR2 (Δ1–48) as the backbone of the receptor to support downstream signaling, as it has lower intrinsic activity than the FL receptor does (Supplementary Fig. S1a).

PAR2 (Gs signaling) [2] = conditions: full-length (FL) PAR2; cited from earlier work
Text: To mimic trypsin cleavage of PAR2 between R36 and S37, we removed residues 2–36 of PAR2 and allowed native methionine aminopeptidase (MAP) to remove the N-terminal methionine residue via a process termed N-terminal methionine processing that occurs naturally across prokaryotes and eukaryotes. We employed a bioluminescence resonance energy transfer (BRET) assay consisting of G protein-based tricistronic activity sensors (BRET0)[17] to quantitatively assess the constitutive activity of GPCR. This approach allowed us to measure the intrinsic activity of the PAR2 constructs. Compared with the ...

PAR2 (Gq signaling) [3] = assay: BRET0 assay, tricistronic Gq sensor, ligand-induced; format: cell-based, human
Procedure: (§1) To measure the self-activation of WT and mutant PAR2 in response to G protein activity, a tricistronic activity sensor assay was performed as previously described. The G protein sensor plasmids were obtained from Addgene (https://addgene.org/Gunnar_Schulte/). To measure constitutive activity, AD293 cells in 6-well plates were cotransfected with 500 ng of WT or mutant PAR2 and 500 ng of the G protein sensor construct (pcDNA-Gα-Nluc/Gβ3/cpVenus-Gγ9 fusion combination) with Lipofectamine 2000 (Invitrogen). After being incubated for 24 h at 37 °C in a 5% CO2 atmosphere, the transfected cells were seeded into white 96-well plates and grown for another 24 h. The cells were subsequently washed with HBSS and incubated with a 1:1000 dilution of furimazine stock solution. After incubation for 3 min at 37 °C, the BRET ratio was measured twice consecutively to assess constitutive receptor activity using an EnVision multimode plate reader (PerkinElmer). Nluc emission intensity was selected using a 450/40-nm monochromator, and cpVenus^173 emission was selected using a 535/30-nm monochromator with an integration time of 0.3 s in both channels. The ratio of cpVenus/Nluc intensity was calculated for each well and normalized to that of the vehicle control.
(§2) For ligand-induced BRET0 measurements, transfected cells were plated in 96-well plates for 24 h, after which the cells were washed with HBSS and incubated with a 1:1000 dilution of furimazine stock solution. After being incubated for 3 min at 37 °C, the cells were treated with the addition of ligand solutions or vehicle control. Plates were then subjected to BRET measurements with an EnVision plate reader (PerkinElmer) at 450/40-nm (Nluc-furimazine) and 535/30-nm to detect ligand-induced changes in the BRET signal. Like in the BRET2 assay, the BRET signal was calculated by the ratio of the intensity at 535 nm (cpVenus) to that at 450 nm (Nluc), and the Δnet BRET ratio was calculated by subtracting the intensity of the vehicle control from that of each experimental well. […]

PAR2 (G13 signaling) [4] = assay: BRET0 assay, tricistronic G13 sensor, ligand-induced; format: cell-based, human
Procedure: as §1, §2

PAR2 (Gs signaling) [5] = assay: BRET0 assay, Gs sensor, ligand-induced; format: cell-based, human; conditions: AD293 cells, full-length (FL) PAR2, Fig. S1b
Procedure: as §1, with “The cells were subsequently washed with HBSS and incubated with a 1:1000 dilution of furimazine stock solution.” left out, “Nluc emission intensity was selected using a 450/40-nm monochromator, and cpVenus^173 emission was selected using a 535/30-nm monochromator with an integration time of 0.3 s in both channels.” left out
(§3) For ligand-induced BRET0 measurements, transfected cells were plated in 96-well plates for 24 h, after which the cells were washed with HBSS and incubated with a 1:1000 dilution of furimazine stock solution. […] Plates were then subjected to BRET measurements with an EnVision plate reader (PerkinElmer) at 450/40-nm (Nluc-furimazine) and 535/30-nm to detect ligand-induced changes in the BRET signal. […]

PAR2 (Gi signaling) = assay: BRET0 assay, Gi sensor, ligand-induced; format: cell-based, human; conditions: AD293 cells, full-length (FL) PAR2, Fig. S1b
Procedure: as §1, with “The cells were subsequently washed with HBSS and incubated with a 1:1000 dilution of furimazine stock solution.” left out, “Nluc emission intensity was selected using a 450/40-nm monochromator, and cpVenus^173 emission was selected using a 535/30-nm monochromator with an integration time of 0.3 s in both channels.” left out
as §3

PAR2 (Gq signaling) [6] = assay: BRET2 Gq dissociation assay; format: cell-based, human
Procedure: (§4) In accordance with previous methods, AD293 cells were plated in 6-well plates at 700,000–800,000 cells per well. After 1 day of growth at 37 °C with 5% CO2, the cells in each well were transfected with 100 ng of pcDNA3-PAR2 (Δ1–48) WT or mutants, 100 ng of Gα-RLuc8, 100 ng of Gβ, and 100 ng of Gγ-green fluorescent protein (Gγ-GFP) plasmids with Lipofectamine 2000 (Thermo Fisher Scientific). After being incubated for 1 day, the cells were collected, pelleted by centrifugation, and suspended in DMEM supplemented with 5% (v/v) FBS. The cell suspensions were dispensed in white 96-well plates at a density of 25,000–50,000 cells per well. One day after being plated, the growth medium was carefully aspirated and replaced immediately with 60 μL of 1× Hank’s balanced salt solution (HBSS) containing 20 mM HEPES (pH 7.4; assay buffer), followed by the addition of 10 μL of freshly prepared 50 μM coelenterazine 400a (Yeasen). After a 5-min equilibration period, the cells were treated with 30 μL of drug for an additional 5 min. The plates were then measured in an EnVision plate reader (PerkinElmer) with 395 nm (RLuc8-coelenterazine 400a) and 510 nm (GFP2) emission filters with integration times of 1 s. The BRET signal was calculated by the ratio of the luminescence intensity at 510 nm (GFP) to that at 395 nm (RLuc), and the Δnet BRET ratio was calculated by subtracting the luminescence intensity of the vehicle control from that of each experimental well (510 nm/395 nm). The data were subsequently plotted as a four-parameter sigmoidal concentration–response curve in GraphPad Prism 8.

PAR2 (Gq signaling) [7] = assay: NanoBiT G protein dissociation assay, Gq; format: cell-based, human; conditions: mean ± SD
Procedure: (§5) Ligand-induced G protein activation was measured by a NanoBiT G protein dissociation assay, as described previously[11],[41]. Briefly, AD293 cells cultured in 6-well plates were transfected with plasmids encoding a large fragment (LgBiT)-containing Gαq or Gα13 subunit (100 ng), a small fragment (SmBiT)-fused Gβ1 subunit (500 ng), and the untagged Gγ2 subunit with a C68S mutation (500 ng) in combination with the WT PAR2 construct (200 ng). After being incubated for 1 day, the transfected cells were collected, pelleted by centrifugation, and suspended in HBSS containing 0.01% bovine serum albumin (Solarbio) and 5 mM HEPES (pH 7.4; assay buffer). The cell suspension was dispensed in white 96-well plates at a volume of 80 μL per well and mixed with 20 μL of 50 μM coelenterazine native (BIOSTNTH). After incubation for 2 h at RT, the baseline luminescence was measured, after which 20 μL of test compound (6×) was added, and subsequent luminescence measurements were performed to detect ligand-induced changes. Luminescence intensity measured from 3 min to 5 min after compound addition was normalized to the initial intensity, and the net luminescence was calculated by subtracting the luminescence ratio of the vehicle control from the normalized luminescence per well. The G protein dissociation signals were fitted to a four-parameter sigmoidal concentration–response curve (GraphPad Prism 8).

PAR2 (G13 signaling) [8] = assay: NanoBiT G protein dissociation assay, G13; format: cell-based, human; conditions: mean ± SD
Procedure: as §5

PAR2 (G13 signaling) [9] = assay: BRET2 G13 dissociation assay; format: cell-based, human
Procedure: as §4

PAR2 [10] = conditions: cited from earlier work
PAR2 [11] = conditions: cited from earlier work; remark: listed apart in the source
[12] = AD293 cells, full-length (FL) PAR2, Fig. S1b
[13] = PAR2 (Δ1–48) WT, AD293 cells, mean ± SD, n = 3, Fig. 5g
[14] = summary statement, assay not named (BRET2, BRET0, NanoBiT used)
[15] = BRET0, AD293 cells, mean ± SD, n = 3, Fig. S5b
[16] = PAR2 (Δ1–48) D62A, AD293 cells, mean ± SD, n = 3, Fig. 5b
[17] = PAR2 D62A, AD293 cells, n = 3, Fig. S5a

## C/C(=N\NC(=O)[C@H]1C(=O)NC[C@@H]1c1ccccc1)c1cccc(Br)c1 [AC264613]
PAR2 [1]; reference not given
  PAR2 agonism: potent PAR2-selective agonist

## SLIGKV-NH2 [human tethered-ligand synthetic peptide]
PAR2 [1]
  PAR2 activation: activating the receptor independently of protease cleavage

## SLIGKV [SLIGKV (TL), tethered ligand peptide of human PAR2]
PAR2 (Gs signaling) [2]
  Gs signaling induction: incapable of inducing Gs signaling
PAR2 (Gq signaling) [3]; [12]
  Gq signaling activation: activated
PAR2 (G13 signaling) [4]; [12]
  G13 signaling activation: activated
PAR2 (Gs signaling) [5]
  Gs signaling activation: had no effect on Gs signaling
PAR2 (Gi signaling)
  Gi signaling activation: activated

## SLVGRL-NH2 [synthetic peptide with valine at third TL residue; Gq-biased ligand]
PAR2 (Gq signaling) [6]; [13]
  Gq activity relative to WT peptide: maintained most of the Gq activity of the WT peptide
PAR2 (Gq signaling) [6]; [14]
  Gq signaling (discussion summary): predominantly activates Gq signaling
PAR2 (Gq signaling) [7]; WT PAR2, AD293 cells, n = 3, Fig. S5b
  Gq versus G13 bias: strong bias toward Gq signaling
PAR2 (G13 signaling) [8]; NanoBiT, WT PAR2, AD293 cells, n = 3, Fig. S5b
  G13 activity: minimal G13 activity
PAR2 (Gq signaling) [3]; [15]
  Gq versus G13 bias: strong bias toward Gq signaling
PAR2 (G13 signaling) [4]; [15]
  G13 activity: minimal G13 activity
PAR2 (G13 signaling) [9]; [13]
  G13 activity relative to WT peptide: lost most of the G13 activity
PAR2 (G13 signaling) [9]; [14]
  G13 signaling (discussion summary): minimal effect on G13 signaling

## SLIGRL-NH2 [mouse tethered-ligand peptide used as synthetic WT peptide]
PAR2 (Gq signaling) [6]; [16]
  Gq activity, D62A mutant: only had a minor effect on Gq activity
PAR2 (Gq signaling) [7]; [17]
  Gq versus G13 bias, D62A mutant: clearly biased toward Gq signaling
PAR2 [1]
  inducing activity versus human ligand SLIGKV-NH2: much higher inducing activity than the human ligand
  PAR2 activation: activating the receptor independently of protease cleavage
PAR2 (G13 signaling) [8]; [17]
  G13 activity, D62A mutant: minimal G13 activity
PAR2 (Gq signaling) [3]; PAR2 D62A, AD293 cells, BRET0, mean ± SD, n = 3, Fig. S5a
  Gq versus G13 bias, D62A mutant: clearly biased toward Gq signaling
PAR2 (G13 signaling) [4]; PAR2 D62A, AD293 cells, mean ± SD, n = 3, Fig. S5a
  G13 activity, D62A mutant: minimal G13 activity
PAR2 (G13 signaling) [9]; [16]
  G13 activity, D62A mutant: almost completely abolished G13 activity
PAR2 (G13 signaling) [9]; PAR2 (Δ1–48) D228A, AD293 cells, mean ± SD, n = 3, Fig. 2c
  G13 receptor activity, D228A mutant: strongly decreased receptor activity
PAR2 (G13 signaling) [9]; PAR2 (Δ1–48) H227A, AD293 cells, mean ± SD, n = 3, Fig. S3h
  G13 receptor activity, H227A mutant: decreased receptor activity
PAR2 (G13 signaling) [9]; PAR2 (Δ1–48) H310A, AD293 cells, mean ± SD, n = 3, Fig. 2c
  G13 receptor activity, H310A mutant: strongly decreased receptor activity
PAR2 (G13 signaling) [9]; PAR2 (Δ1–48) L230A, AD293 cells, mean ± SD, n = 3, Fig. 2c
  G13 receptor activity, L230A mutant: strongly decreased receptor activity
PAR2 (G13 signaling) [9]; PAR2 (Δ1–48) P231A, AD293 cells, mean ± SD, n = 3, Fig. 2c
  G13 receptor activity, P231A mutant: strongly decreased receptor activity
PAR2 (G13 signaling) [9]; PAR2 (Δ1–48) V229A, AD293 cells, mean ± SD, n = 3, Fig. S3h
  G13 receptor activity, V229A mutant: decreased receptor activity
PAR2 (G13 signaling) [9]; PAR2 (Δ1–48) Y311A, AD293 cells, mean ± SD, n = 3, Fig. 2c
  G13 receptor activity, Y311A mutant: strongly decreased receptor activity
PAR2 (G13 signaling) [9]; PAR2 (Δ1–48) Y323A, AD293 cells, mean ± SD, n = 3, Fig. 2c
  G13 receptor activity, Y323A mutant: strongly decreased receptor activity

## 2f-LAAAAI-NH2 [DF253]
PAR2 [10]
  ERK1/2 phosphorylation: without inducing ERK1/2 phosphorylation
PAR2 [11]
  PAR2-mediated Ca2+ release: trigger PAR2-mediated Ca^2+ release

## 2-furoyl-LIGRL-NH2
PAR2 [1]
  PAR2 activation: activating the receptor independently of protease cleavage

## Isox-Cha-Chg-Chg-A-R-NH2 [AY254]
PAR2 [10]
  ERK1/2 phosphorylation: ERK-biased agonist

## SLAGRL-NH2
PAR2 [1]
  efficacy: significantly lower efficacy

## CC[C@H](C)[C@H](NC(=O)[C@H](CC1CCCCC1)NC(=O)c1ccno1)C(=O)N1CCC2(C=Cc3ccccc32)CC1 [GB88]
PAR2 [1]
  PAR2 agonism: partial PAR2 agonist

B1: NE: neutrophil elastase, protease cleaving PAR2 between S67↓V68 (protein, UniProt P08246 30-267, looked up)
Neutrophil elastase: IVGGRRARPHAWPFMVSLQLRGGHFCGATLIAPNFVMSAAHCVANVNVRAVRVVLGAHNLSRREPTRQVFAVQRIFENGYDPVNLLNDIVILQLNGSATINANVQVAQLPAQGRRLGNGVQCLAMGWGLLGRNRGIASVLQELNVTVVTSLCRRSNVCTLVRGRQAGVCFGDSGSPLVCNGLIHGIASFVRGGCASGLYPDAFAPVAQFVNWIDSIIQRSEDNPCPHPRDPDPASRTH
PAR2 [10]; cleavage at S67↓V68
  ERK1/2 activation on PAR2 cleavage: activates ERK1/2
PAR2 [11]; cleavage at E56↓T57 (CS) or S67↓V68 (NE)
  Ca2+ release on PAR2 cleavage: not Ca^2+ release
